In patent publication US7476383B2, “Antibody selective for DR4 and uses thereof” (The UAB Research Foundation, priority 2000, dated 2009):
Residues, ends and D or L forms follow the SMILES beside them. *: point of attachment. Cbz = O=C(OCc1ccccc1)*; CH2F = FC*

Tests used:
normal human hepatocytes = assay: Hepatocyte viability (ATPLite); format: cell-based
Description: For 24-hour cell viability assays, fresh normal human hepatocytes in 96-well plates were purchased from In Vitro Technology (Baltimore, Md.). […] For 6-hour viability assays, normal hepatocytes or hepatocellular cancer cells are isolated from fresh surgical specimens collected from UAB Tissue Procurement Center. All reagents for isolation of human hepatocytes including hepatocytes perfusion buffer, digest medium, washing medium, and attachment medium were purchased from Gibco. The tissue slides are digested in the Hepatocyte Digest Medium at 37° C. with shaking (50 rpm) for one hour. The isolated hepatocytes are harvested by low speed centrifugation (50 g, 3 min), and washed with the Hepatocyte Washing Medium six times. Single cell suspension of hepatocytes are cultured in the Attachment Medium containing 10% FCS in 96-well Matrigel plates (BD) for six hours. Non-attached hepatocytes are removed by twice washing with pre-warmed attachment medium.

NF-κb = assay: Gel-shift assay in RA synovial cells; format: cell-based, human; conditions: 50 ng/ml TRAIL, Fas ligand or TRA-8, 20 ng/ml TNF-a
Procedure: There is considerable evidence to support the concept that there are close links between the signaling of apoptosis and the signaling of proliferation (45). It has been established that DR5 is able to activate a NF-kb pathway in addition to apoptosis signaling transduction, and that NF-κb activation may be able to transduce an anti-apoptosis signal. Therefore a gel-shift assay is carried out. […] The nuclear extracts are prepared and incubated with the […] [^32P]-labeled oligo-DNA probe. The results are analyzed using the cyclone phospha-imager (TopCount NXT, Packard Instrument Company, CT).

MMP-1 and MMP-3 = assay: MMP ELISA of RA synovial cell supernatants; format: cell-based, human; conditions: RA synovial cells, overnight
Procedure: Thus, it is possible that TRAIL, like TNF-α, may serve as a pro-inflammatory cytokine. […] The levels of the MMP-1 and MMP-3 in the culture supernatants are determined by the ELISA kits.

OA synovial cells = assay: Apoptosis of primary synovial cells; format: cell-based, human; conditions: OA72M cells
Description: (§1) Cell viability is the percentage of the cpm of treated cells versus the cpm of untreated cells.
(§2) The expression of DR5 on a panel of eight primary cultured synovial cells from patients with RA is compared with that on eight primary cultured synovial cells from patients with osteoarthritis (hereinafter referred to as “OA”). The eight human primary RA synovial cell cultures RA-1014, RA-1016, RA-1021, RA-512, RA-707, RA-811, RA-716, and RA-929 are kindly provided by Dr. M. Ohtsuki (Sankyo Co. Ltd., Tokyo, Japan) and cultured in DMEM supplemented with 10% FCS, penicillin, streptomycin, and glutamine. The […] OA synovial cell primary cell cultures are isolated from the synovial tissues of OA patients by a standard collagenase method and cultured under the same conditions. The passage number of all primary cells is under 10. The expression of DR5 is determined by FACs analysis as described in Example 5.

RA synovial cells = assay: Apoptosis of primary synovial cells; format: cell-based, human; conditions: RA-1014, RA-811, RA-716, RA929; high concentrations (>50 ng/ml)
Description: as §1, §2

primary B cells = assay: Apoptosis by ATPLite, overnight; format: cell-based, human
Procedure: (§3) Cell viability is determined using (1) the ATPLite kit according to the manufacturer's instructions (Packard Instruments, Meriden, Conn.); (2) the MTT Cell proliferation/viability kit (Sigma); or (3) PI staining of dead cells and analyzed by flow cytometry. At end of culture, cells are stained with 10 μg/ml PI and PI negative cells are gated as viable cells. For analysis of condensed nuclei of hepatocytes, cells are stained with 10 ng/ml […] (Molecular Probes) and analyzed by flow cytometry.

[1] = test system: Primary peripheral blood T cells; assay: Apoptosis by ATPLite, overnight; format: cell-based, human
Procedure: as §3

Jurkat and CEM-6 = assay: Apoptosis by ATPLite, overnight; format: cell-based, human
Procedure: as §3

U87, U937 and Molt-4 = assay: Apoptosis by ATPLite, overnight; format: cell-based, human; conditions: glioma line U87, hematopoietic lines U937 and Molt-4
Procedure: as §3

H-9 cells = assay: Apoptosis by ATPLite, overnight; format: cell-based, human
Procedure: as §3

SKW6.4, EB-3, and Raji = assay: Apoptosis by ATPLite, overnight; format: cell-based, human; conditions: B lymphoma lines SKW6.4, EB-3, Raji
Procedure: as §3

Daudi = assay: Apoptosis by ATPLite, overnight; format: cell-based, human; conditions: B lymphoma line Daudi
Procedure: as §3

Molt-4 and U937 cells = assay: Apoptosis by ATPLite, overnight; format: cell-based, human
Procedure: as §3

Hs683 and U251-MG = assay: Apoptosis by ATPLite, overnight; format: cell-based, human; conditions: glioma lines Hs683 and U251-MG
Procedure: as §3

DR4 = molecular target: T1, DR4 (Homo sapiens, UniProt O00220); assay: ELISA binding to DR4-Ig fusion protein; conditions: ELISA plates coated with DR4/hIgG1
T1 construct: fusion protein comprising the extracellular domain of human DR5 or DR4 and the Fc region of human IgG1
T1 sequence (O00220 24-239 limits assumed): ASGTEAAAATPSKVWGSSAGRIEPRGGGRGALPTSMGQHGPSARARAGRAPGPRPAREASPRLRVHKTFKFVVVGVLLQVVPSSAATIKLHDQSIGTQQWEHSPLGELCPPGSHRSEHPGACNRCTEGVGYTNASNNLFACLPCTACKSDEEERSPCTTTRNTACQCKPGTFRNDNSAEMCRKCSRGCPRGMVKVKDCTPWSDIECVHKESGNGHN
Procedure: ELISA plates are coated with 2 μg/ml of DR4-Ig or DR5-Ig fusion protein overnight. […] The reactions are developed by TMB substrate buffer and measured by the Benchmark Microplate Reader (BioRad). The Kd values are estimated by the one-site binding model of non-linear regression using GraphPad Prism software (GraphPad Software, San Diego, Calif.).

Jurkat cells = assay: Jurkat cell viability (ATPLite, MTT, PI exclusion); format: cell-based, human; conditions: 50 ng/ml TRA-8 overnight
Procedure: as §3

2LMP xenografts = assay: TUNEL analysis of apoptosis in xenografts; format: in vivo, athymic nude mice; conditions: day 14; untreated 1%
Procedure: One group of mice was untreated. The xeno grafts were dissected for the study of apoptosis on day 14 after tumor cell injection. The reason for the substantial reduction in treatment intensity compared to our standard treatment protocol was to allow adequate tumor tissue for analysis on day 14. Tunel assay for apoptosis in tumor xenografts was performed as follows. Five-micron paraffin sections of tissue were mounted on Superfrost/Plus slides and heated at 58° C. for 1 h. Tissue sections were deparaffinized in three changes of xylene and rehydrated with one change of absolute ethanol, 95% ethanol, and 70% ethanol, each in 5-min increments. Then, the sections were placed in Tris-buffered saline (0.5M Tris base, 0.15 M NaCl, 0.0002% Triton X-100, pH 7.6). Apoptotic nuclei were detected using an Apop Tag Peroxidase kit (Intergen, Purchase, N.Y.). Proteinase K (20 μg/ml in distilled deionized H2O) was added to the tissue specimens and incubated at room temperature for 15 min. Endogenous peroxidases were quenched with an aqueous solution of 3% hydrogen peroxide for 5 min. […] Approximately 10 random fields were evaluated for percentage of Tunel stained and percentage of intensely stained apoptotic bodies throughout the tissue.

[2] = test system: 2LMP human breast cancer xenografts; assay: 2LMP breast cancer xenografts in athymic nude mice; format: in vivo
Procedure: Nude mice were inoculated s.c. with the human breast cancer cell line, 2LMP. Treatment with i.p. doses of 200 μg of 2E12 occurred on days 7, 10, 14, 17, 21, and 24 after tumor cell injection. Animals received i.v. adriamycin (doxorubicin) (6 mg/kg) on days 8, 12, and 16.
Athymic nude mice were injected s.c. with 3×10^7 2LMP cells. […] The growth of tumors was monitored over time. […] Tumor size and regression rates were determined.
Data from 6 independent experiments were analyzed by individual experiment. Treatment combinations were compared with respect to in vivo anti-tumor efficacy, i.e., inhibition of tumor growth, which was measured as three endpoints; extension of tumor doubling times, percentage of tumor regressions, and growth rates over time. The actual number of days at which the tumor doubled in surface area (product of two diameters) relative to baseline on day 7 after tumor cell injection was used in the doubling time analysis. The nonparametric Kruskal-Wallis test was used for median tumor doubling time comparisons between treatments. Fisher's exact test was used to compare the proportions of tumor regressions and relapse-free regressions across treatment groups. To determine if any combination therapy produced significant synergistic inhibition of tumor growth, i.e., more than additive, the growth curves from the serial area measurements were compared using a linear mixed model approach over the first 3 weeks after start of therapy (Lindsey, J. K. Models for Repeated Measurements, pp. 100-142, Oxford, 1993). To test for synergistic effects of the combination therapies, an interaction term was included in the model. If the interaction term was significant and the effect was inhibition of growth at a rate greater than additive then the interaction was considered synergistic.
A total of 166 animals, 10 treatment groups, and 6 independent experiments were included in the aggregate analysis. Treatment combinations were compared with respect to in vivo anti-tumor efficacy. The median tumor doubling times were analyzed using the Kruskal-Wallis test and Fisher's exact test was used to compare the proportions of tumor regressions and relapse-free regressions across treatment groups.

[3] = aggregate, number of animals (%)

“TRAIL: soluble recombinant human TRAIL (aa 95 to 281) with FLAG tag, Alexis; used with anti-FLAG crosslinker” was tested, and the hepatocytes killed (normal human hepatocytes; 6-hour culture, 500 ng/ml TRAIL) was “Over 20%”, the hepatocytes killed (normal human hepatocytes; 24-hour culture, 1 μg/ml, TRAIL plus crosslinker) was “more than 80%” and the “hepatocytes killed in the presence of cycloheximide” value (normal human hepatocytes; four-hour culture, 1 μg/ml cycloheximide) was “greater than 70%”. The NF-κb activation (NF-κb) was “activated in a time-dependent fashion”, the “production of MMPs” value (MMP-1 and MMP-3) was “not associated with increased release” and the susceptibility to apoptosis (OA synovial cells) was “completely resistant”. For the same molecule, the cell death (RA synovial cells) was ~100%, the apoptosis after treatment (primary B cells) was “did not undergo apoptosis” and the susceptibility to apoptosis [1] was “resistant”. The susceptibility to apoptosis (Jurkat and CEM-6) was “highly susceptible”, the sensitivity to apoptosis (U87, U937 and Molt-4) was “exhibited sensitivity” and the susceptibility to apoptosis (H-9 cells) was “resistant”. The susceptibility to apoptosis (SKW6.4, EB-3, and Raji) was “very susceptible”, the susceptibility to apoptosis (Daudi) was “much less susceptible” and the susceptibility to apoptosis (Molt-4 and U937 cells) was “partially susceptible”. For the same molecule, the sensitivity to apoptosis (Hs683 and U251-MG) was “resistant” and the “binding activity to DR4” value (DR4) was “bound to DR4”.

In the case of TNF-α, the NF-κb activation (NF-κb) is reported as “activated in a time-dependent fashion” and the “production of MMPs” value (MMP-1 and MMP-3) is reported as “increased”.

For `CC(NC(=O)C(NC(=O)OCc1ccccc1)C(C)C)C(=O)NC(CC(=O)O)C(=O)CF` (stereo not drawn) [Z-VAD] (Cbz-Val-Ala-Asp-CH2F; configuration not given here), the “inhibition of TRA-8-induced cell death” value (Jurkat cells) was “completely inhibited”.

In the case of IL-1b: proinflammatory cytokine, the “production of MMPs” value (MMP-1 and MMP-3) is reported as “increased”.

For `COc1cccc2c1C(=O)c1c(O)c3c(c(O)c1C2=O)C[C@@](O)(C(=O)CO)C[C@@H]3O[C@H]1C[C@H](N)[C@H](O)[C@H](C)O1` [Adriamycin, adriamycin], the “intense TUNEL stained cells” value (2LMP xenografts) was 6%, the “Complete Regressions No relapse (%)” value [2, 3] was 0 and the “Complete Regressions Total (%)” value [2, 3] was 0. For the same molecule, the “complete regressions of tumor” value ([2]; individual experiments (FIG. 25-27), animals) was “no complete regressions” and the “inhibition of tumor growth compared to untreated controls” value ([2]; individual experiments, TRA-8 200 μg i.p. x6, Kruskal-Wallis test) was “did not differ from controls”.

B1: Fas ligand: recombinant soluble Fas ligand used with enhancer (protein, UniProt P48023 103-281, looked up)
extracellular domain: QLFHLQKELAELRESTSQMHTASSLEKQIGHPSPPPEKKELRKVAHLTGKSNSRSMPLEWEDTYGIVLLSGVKYKKGGLVINETGLYFVYSKVYFRGQSCNNLPLSHKVYMRNSKYPQDLVMMEGKMMSYCTTGQMWARSSYLGAVFNLTSADHLYVNVSELSLVNFEESQTFFGLYKL
modifications: extracellular domain
notes: recombinant soluble Fas ligand used with enhancer
In the case of B1, the NF-κb activation (NF-κb) is reported as “unable to induce NF-κb activation”.
